For 19 molecules, Ki and IC50 results are on record in US9546152B2 (MERCK SHARP & DOHME CORP., priority 2012, dated 2017).

For experiment [1], the target named is T1, human orexin-2 receptor (Homo sapiens (Human), UniProt O43614). Briefly: radioligand binding assay, orexin-2 receptor. The following applies: membranes prepared from CHO cells expressing the OX2 receptor; read-out: hOX2R BIND hKi.
Experiment [2] addresses T1, human orexin-2 receptor. Briefly: FLIPR Ca2+ Flux Assay, orexin-2 receptor. It is filed as cell-based. The following applies: CHO cells expressing the human orexin-2 receptor; agonist 70 pM Ala-6,12 human orexin-A; read-out: hOX2R FLIPR IC50. Put shortly: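 Intracellular calcium in Fluo-4-loaded CHO cells (rat OX1R or human OX2R) is monitored on a FLIPR. Compounds are given 5 min before 70 pM Ala-6,12 orexin-A, and inhibition is derived from peak height versus the uninhibited agonist peak.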
In general terms: Calcium flux is commonly read through the fluorescence of an indicator in the cells.

The target of the next experiment is rat orexin-1 receptor (Rattus norvegicus (Rat), UniProt P56718). Briefly: FLIPR Ca2+ Flux Assay, orexin-1 receptor. It is filed as cell-based. The settings on record: CHO cells expressing the rat orexin-1 receptor; agonist 70 pM Ala-6,12 human orexin-A; read-out: hOX1R FLIPR IC50. Here is the method:
In a typical experiment the OX1 and OX2 receptor antagonistic activity of the compounds of the present invention was determined in accordance with the following experimental method. For intracellular calcium measurements, Chinese hamster ovary (CHO) cells expressing the rat orexin-1 receptor or the human orexin-2 receptor, are grown in Iscove's modified DMEM containing 2 mM L-glutamine, […], 1% hypoxanthine-thymidine supplement, 100 U/ml penicillin, 100 μg/ml streptomycin and 10% heat-inactivated fetal calf serum (FCS). The cells are seeded at 20,000 cells/well into Becton-Dickinson black 384-well clear bottom sterile plates coated with poly-D-lysine. All reagents were from GIBCO-Invitrogen Corp. The seeded plates are incubated overnight at 37° C. and 5% CO2. Ala-6,12 human orexin-A as the agonist is prepared as a 1 mM stock solution in 1% bovine serum albumin (BSA) and diluted in assay buffer (HBSS containing 20 mM HEPES, 0.1% BSA and 2.5 mM probenecid, pH7.4) for use in the assay at a final concentration of 70 pM. Test compounds are prepared as 10 mM stock solution in DMSO, then diluted in 384-well plates, first in DMSO, then assay buffer. On the day of the assay, cells are washed 3 times with 100 μl assay buffer and then incubated for 60 min (37° C., 5% CO2) in 60 μl assay buffer containing 1 μM Fluo-4AM ester, 0.02% pluronic acid, and 1% BSA. The dye loading solution is then aspirated and cells are washed 3 times with 100 μl assay buffer. 30 μl of that same buffer is left in each well. Within the Fluorescent Imaging Plate Reader (FLIPR, Molecular Devices), test compounds are added to the plate in a volume of 25 μl, incubated for 5 min and finally 25 μl of agonist is added. Fluorescence is measured for each well at 1 second intervals for 5 minutes and the height of each fluorescence peak is compared to the height of the fluorescence peak induced by 70 pM Ala-6,12 orexin-A with buffer in place of antagonist. […] Alternatively, compound potency can be assessed by a radioligand binding assay (described in Bergman et. al. Bioorg. Med. Chem. Lett. 2008, 18, 1425-1430) in which the inhibition constant (Ki) is determined in membranes prepared from CHO cells expressing either the OX1 or OX2 receptor. The intrinsic orexin receptor antagonist activity of a compound which may be used in the present invention may be determined by these assays.

pIC50, pKi: −log10 of the molar value. A value given as a limit tells only on which side of the number the result lay.

Sequence of rat orexin-1 receptor (P56718 whole entry): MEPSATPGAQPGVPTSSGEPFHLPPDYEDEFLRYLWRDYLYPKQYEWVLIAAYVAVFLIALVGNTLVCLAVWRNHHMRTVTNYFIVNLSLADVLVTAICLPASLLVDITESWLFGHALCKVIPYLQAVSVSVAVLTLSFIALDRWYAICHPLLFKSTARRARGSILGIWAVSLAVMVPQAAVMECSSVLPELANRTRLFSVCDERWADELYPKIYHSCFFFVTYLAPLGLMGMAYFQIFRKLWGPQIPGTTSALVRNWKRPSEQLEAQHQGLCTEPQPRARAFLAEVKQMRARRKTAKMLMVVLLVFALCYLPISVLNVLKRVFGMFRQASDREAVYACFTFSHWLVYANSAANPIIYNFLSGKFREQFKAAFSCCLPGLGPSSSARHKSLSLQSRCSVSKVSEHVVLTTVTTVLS
T1 sequence (O43614 whole entry): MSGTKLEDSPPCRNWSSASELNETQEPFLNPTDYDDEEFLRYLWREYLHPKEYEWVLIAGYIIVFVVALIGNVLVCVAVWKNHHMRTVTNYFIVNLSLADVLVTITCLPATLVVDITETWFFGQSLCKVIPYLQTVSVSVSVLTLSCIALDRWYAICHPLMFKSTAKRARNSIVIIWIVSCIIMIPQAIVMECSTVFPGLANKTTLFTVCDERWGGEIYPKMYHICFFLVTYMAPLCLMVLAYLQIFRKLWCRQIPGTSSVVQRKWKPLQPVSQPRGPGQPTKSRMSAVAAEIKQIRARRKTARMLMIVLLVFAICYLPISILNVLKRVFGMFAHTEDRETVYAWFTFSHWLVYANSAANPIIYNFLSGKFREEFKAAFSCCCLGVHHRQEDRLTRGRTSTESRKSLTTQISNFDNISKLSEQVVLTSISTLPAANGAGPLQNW

Turning to `COc1c(C#N)ccnc1O[C@@H]1CC[C@@H](C)N(C(=O)c2ccc(C)cc2-n2nccn2)C1` [Example 102, 3-methoxy-2-{[(3R,6R)-6-methyl-1-{[4-methyl-2-(2H-1,2,3-triazol-2-yl)phenyl]carbonyl}piperidin-3-yl]oxy}pyridine-4-carbonitrile], the pKi on human orexin-2 receptor [1] is 9.40. The values for the pIC50 at human orexin-2 receptor [2] and on rat orexin-1 receptor were 7.68 and 5.45, respectively.
The matching figures for `Cc1c(C#N)ccnc1O[C@@H]1CC[C@@H](C)N(C(=O)c2cn(C)nc2-c2nccs2)C1` [Example 46, 3-methyl-2-{[(3R,6R)-6-methyl-1-{[1-methyl-3-(1,3-thiazol-2-yl)-1H-pyrazol-4-yl]carbonyl}piperidin-3-yl]oxy}pyridine-4-carbonitrile]: 7.85, 6.95 and less than 5.00.
For `COc1ccc(-c2ccccc2C(=O)N2C[C@H](Oc3nccc(C#N)c3C)CC[C@H]2C)cn1` [Example 49, 2-{[(3R,6R)-1-{[2-(6-methoxypyridin-3-yl)phenyl]carbonyl}-6-methylpiperidin-3-yl]oxy}-3-methylpyridine-4-carbonitrile] the same measures were 9.30, 7.82 and 6.33.
With `Cc1cnn(-c2ccccc2C(=O)N2C[C@H](Oc3nccc(C#N)c3C)CC[C@H]2C)c1` [Example 43, 3-methyl-2-{[(3R,6R)-6-methyl-1-{[2-(4-methyl-1H-pyrazol-1-yl)phenyl]carbonyl}piperidin-3-yl]oxy}pyridine-4-carbonitrile], the pKi on human orexin-2 receptor [1] was 9.05. Moreover, the pIC50 (commonly −log10 of the IC50, conventionally taken in molar units) was 8.00 on human orexin-2 receptor [2] and 6.14 at rat orexin-1 receptor.
Turning to `Cc1c(C#N)ccnc1O[C@@H]1CC[C@@H](C)N(C(=O)c2cc(F)ncc2-c2cncs2)C1` [Example 25, 2-{[(3R,6R)-1-{[2-fluoro-5-(1,3-thiazol-5-yl)pyridin-4-yl]carbonyl}-6-methylpiperidin-3-yl]oxy}-3-methylpyridine-4-carbonitrile], the pKi at human orexin-2 receptor [1] is 8.21. Further, the pIC50 on human orexin-2 receptor [2] was 7.37; on rat orexin-1 receptor it was less than 5.00.
For `Cc1c(C#N)ccnc1O[C@@H]1CC[C@@H](C)N(C(=O)c2ccccc2-n2ncnn2)C1` [Example 70, 3-methyl-2-{[(3R,6R)-6-methyl-1-{[2-(2H-tetrazol-2-yl)phenyl]carbonyl}piperidin-3-yl]oxy}pyridine-4-carbonitrile] the same measures were 8.80, 8.11 and 5.34.
For `Cc1c(C#N)ccnc1O[C@@H]1CC[C@@H](C)N(C(=O)c2cnc(Cl)cc2-n2nccn2)C1` [Example 67, 2-{[(3R,6R)-1-{[6-chloro-4-(2H-1,2,3-triazol-2-yl)pyridin-3-yl]carbonyl}-6-methylpiperidin-3-yl]oxy}-3-methylpyridine-4-carbonitrile] the same measures were 8.33, 7.46 and less than 5.00.
In the case of `Cc1c(C#N)ccnc1O[C@@H]1CC[C@@H](C)N(C(=O)c2sccc2-c2nccs2)C1` [Example 37, 3-methyl-2-{[(3R,6R)-6-methyl-1-{[3-(1,3-thiazol-2-yl)thiophen-2-yl]carbonyl}piperidin-3-yl]oxy}pyridine-4-carbonitrile], the pKi on human orexin-2 receptor [1] is 8.92. Moreover, the pIC50 is 7.96 on human orexin-2 receptor [2] and 5.64 on rat orexin-1 receptor.
The matching figures for `COc1c(C#N)ccnc1O[C@@H]1CC[C@@H](C)N(C(=O)c2cccc(F)c2-n2nccn2)C1` [Example 97, 2-{[(3R,6R)-1-{[3-fluoro-2-(2H-1,2,3-triazol-2-yl)phenyl]carbonyl}-6-methylpiperidin-3-yl]oxy}-3-methoxypyridine-4-carbonitrile]: 9.52, 7.72 and 5.96.
The matching figures for `Cc1nsc(-c2ccccc2)c1C(=O)N1C[C@H](Oc2nccc(C#N)c2C)CC[C@H]1C` [Example 47, 3-methyl-2-({(3R,6R)-6-methyl-1-[(3-methyl-5-phenylisothiazol-4-yl)carbonyl]piperidin-3-yl}oxy)pyridine-4-carbonitrile]: 8.31, 7.09 and 5.63.
`Cc1c(C#N)ccnc1O[C@@H]1CC[C@@H](C)N(C(=O)c2ccccc2C(F)(F)F)C1` [Example 17, 3-methyl-2-{[(3R,6R)-6-methyl-1-{[2-(trifluoromethyl)phenyl]carbonyl}piperidin-3-yl]oxy}pyridine-4-carbonitrile]: the pKi on human orexin-2 receptor [1] was 8.51. Moreover, the negative-log IC50 (pIC50) at human orexin-2 receptor [2] is 7.68; at rat orexin-1 receptor, 5.30.
For `CSc1ccccc1C(=O)N1C[C@H](Oc2nccc(C#N)c2C)CC[C@H]1C` [Example 61, 3-methyl-2-{[(3R,6R)-6-methyl-1-{[2-(methylsulfanyl)phenyl]carbonyl}piperidin-3-yl]oxy}pyridine-4-carbonitrile] the same measures were 8.85, 7.46 and 5.10.
The matching figures for `COc1c(C#N)ccnc1O[C@@H]1CC[C@@H](C)N(C(=O)c2ccccc2C2CCC2)C1` [Example 105, 2-({(3R,6R)-1-[(2-cyclobutylphenyl)carbonyl]-6-methylpiperidin-3-yl}oxy)-3-methoxypyridine-4-carbonitrile]: 9.70, 7.44 and 5.46.
Take `Cc1c(C#N)ccnc1O[C@@H]1CC[C@@H](C)N(C(=O)c2sccc2-c2ncccn2)C1` [Example 75, 3-methyl-2-({(3R,6R)-6-methyl-1-[(3-pyrimidin-2-ylthiophen-2-yl)carbonyl]piperidin-3-yl}oxy)pyridine-4-carbonitrile]: the pKi at human orexin-2 receptor [1] is 9.10. Besides, the pIC50 on human orexin-2 receptor [2] was 7.82; on rat orexin-1 receptor, 5.85.
The matching figures for `Cc1c(C#N)ccnc1O[C@@H]1CC[C@@H](C)N(C(=O)c2ccccc2N2CCCC2)C1` [Example 29, 3-methyl-2-({(3R,6R)-6-methyl-1-[(2-pyrrolidin-1-ylphenyl)carbonyl]piperidin-3-yl}oxy)pyridine-4-carbonitrile]: 8.47, 7.54 and 5.51.
For `COc1c(C#N)ccnc1O[C@@H]1CC[C@@H](C)N(C(=O)c2ccccc2-n2ncnn2)C1` [Example 115, 3-Methoxy-2-{[(3R,6R)-6-methyl-1-{[2-(2H-tetrazol-2-yl)phenyl]carbonyl}piperidin-3-yl]oxy}pyridine-4-carbonitrile] the same measures were 8.85, 8.22 and 5.78.
The matching figures for `COc1ccc(C(=O)N2C[C@H](Oc3nccc(C#N)c3C)CC[C@H]2C)c(-c2ccccc2)n1` [Example 78, 2-({(3R,6R)-1-[(6-methoxy-2-phenylpyridin-3-yl)carbonyl]-6-methylpiperidin-3-yl}oxy)-3-methylpyridine-4-carbonitrile]: 8.92, 7.04 and 5.90.
Regarding `Cc1c(C#N)ccnc1O[C@@H]1CC[C@@H](C)N(C(=O)c2ccc(CO)cc2-c2ccccc2)C1` [Example 54, 2-{[(3R,6R)-1-{[5-(hydroxymethyl)biphenyl-2-yl]carbonyl}-6-methylpiperidin-3-yl]oxy}-3-methylpyridine-4-carbonitrile], the pKi on human orexin-2 receptor [1] was 8.49. In addition, the pIC50 at human orexin-2 receptor [2] was 7.43; on rat orexin-1 receptor it was 5.86.
The matching figures for `Cc1c(C#N)ccnc1O[C@@H]1CC[C@@H](C)N(C(=O)c2c(F)cccc2-c2cscn2)C1` [Example 22, 2-{[(3R,6R)-1-{[2-fluoro-6-(1,3-thiazol-4-yl)phenyl]carbonyl}-6-methylpiperidin-3-yl]oxy}-3-methylpyridine-4-carbonitrile]: 9.52, 7.70 and 6.00.
